According to ChEMBL document CHEMBL5137070, “N-2-(Phenylamino) Benzamide Derivatives as Dual Inhibitors of COX-2 and Topo I Deter Gastrointestinal Cancers via Targeting Inflammation and Tumor Progression” (J Med Chem, 2022):
Calls of active or inactive are those of the source. The rule behind the calls is not given here.

How the values were obtained:
CT26.WT [1] = experiment: Antiproliferative activity against mouse CT26.WT cells assessed as reduction in cell proliferation incubated for 48 hrs by MTT assay; type: functional, cell-based
RKO [2] = experiment: Antiproliferative activity against human RKO cells assessed as reduction in cell proliferation incubated for 48 hrs by MTT assay; type: functional, cell-based
HGC-27 [3] = experiment: Antiproliferative activity against human HGC-27 cells assessed as reduction in cell proliferation incubated for 48 hrs by MTT assay; type: functional, cell-based; settings: HGC-27, 48 h
[4] = molecular target: T1, DNA topoisomerase 1 (Homo sapiens) (UniProt P11387); experiment: Inhibition of human topoisomerase I assessed as DNA unwinding using DNA pBR322 as substrate at 2 uM incubated for 30 mins by ethidium bromide staining based agarose gel electrophoresis
T1 sequence (whole entry): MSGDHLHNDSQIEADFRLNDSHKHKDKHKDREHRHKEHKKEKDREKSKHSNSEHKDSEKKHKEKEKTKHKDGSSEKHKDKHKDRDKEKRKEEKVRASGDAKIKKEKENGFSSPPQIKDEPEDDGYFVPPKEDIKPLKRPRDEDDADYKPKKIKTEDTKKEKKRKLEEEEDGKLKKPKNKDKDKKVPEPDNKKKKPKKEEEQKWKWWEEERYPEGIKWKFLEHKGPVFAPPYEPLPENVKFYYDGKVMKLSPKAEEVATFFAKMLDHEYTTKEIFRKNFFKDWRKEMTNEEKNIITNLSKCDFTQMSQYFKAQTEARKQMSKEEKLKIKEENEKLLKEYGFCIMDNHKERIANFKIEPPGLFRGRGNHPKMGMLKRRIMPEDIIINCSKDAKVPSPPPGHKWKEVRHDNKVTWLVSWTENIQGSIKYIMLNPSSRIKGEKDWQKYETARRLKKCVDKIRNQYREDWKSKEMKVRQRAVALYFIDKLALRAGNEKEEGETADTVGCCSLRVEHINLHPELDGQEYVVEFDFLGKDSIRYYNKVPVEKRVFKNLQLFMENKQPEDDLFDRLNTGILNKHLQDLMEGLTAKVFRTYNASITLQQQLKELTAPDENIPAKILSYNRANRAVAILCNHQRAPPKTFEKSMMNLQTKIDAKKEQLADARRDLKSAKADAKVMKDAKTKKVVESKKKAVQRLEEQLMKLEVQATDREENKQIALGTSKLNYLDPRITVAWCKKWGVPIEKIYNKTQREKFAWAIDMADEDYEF

HGC-27 [5] = experiment: Effect on cell morphology in human HGC-27 cells assessed as appearance of smaller cells at 10 uM incubated for 48 hrs by giemsa staining based microscopic analysis; type: functional
DNA topoisomerase 1 = molecular target: T2, DNA topoisomerase 1 (Homo sapiens, UniProt P11387); experiment: Inhibition of human topoisomerase I assessed as DNA relaxation using DNA pBR322 as substrate incubated for 30 mins by ethidium bromide staining based agarose gel electrophoresis
T2 sequence (P11387 whole entry): T1 sequence (whole entry)

HGC-27 [6] = experiment: Antiproliferative activity against human HGC-27 cells assessed as clone formation at 0.37 to 3.3 uM incubated for 4 days by crystal violet staining based analysis; type: functional, cell-based; settings: dose 0.37-3.3 µM, time 4.0 day
RKO [7] = experiment: Antiproliferative activity against human RKO cells assessed as clone formation at 0.04 to 3.3 uM incubated for 4 days by crystal violet staining based analysis; type: functional, cell-based; settings: dose 0.04-3.3 µM, time 4.0 day
HGC-27 [8] = experiment: Effect on cell morphology in human HGC-27 cells assessed as appearance of round cells at 10 uM incubated for 48 hrs by giemsa staining based microscopic analysis; type: functional
HGC-27 [9] = experiment: Effect on cell morphology in human HGC-27 cells assessed as lose of adherence at 10 uM incubated for 48 hrs by giemsa staining based microscopic analysis; type: functional
RKO [10] = experiment: Effect on cell morphology in human RKO cells assessed as appearance of smaller cells at 10 uM incubated for 48 hrs by giemsa staining based microscopic analysis; type: functional
RKO [11] = experiment: Effect on cell morphology in human RKO cells assessed as condensed morphology at 10 uM incubated for 48 hrs by giemsa staining based microscopic analysis; type: functional
HGC-27 [12] = experiment: Induction of apoptosis in human HGC-27 cells assessed as increase in caspase-3 activity at 10 uM incubated for 36 hrs by flow cytometry (Rvb= 9.39%); type: functional
RKO [13] = experiment: Induction of apoptosis in human RKO cells assessed as increase in Bax/Bcl-2 ratio expression at 1.1 to 10 uM incubated for 24 hrs by western blot assay; type: functional, cell-based; settings: dose 1.1-10 µM
RKO [14] = experiment: Induction of apoptosis in human RKO cells assessed as increase in cleaved caspase-3 expression at 1.1 to 10 uM incubated for 24 hrs by western blot assay; type: functional, cell-based; settings: dose 1.1-10 µM
CT26.WT [15] = experiment: Antiproliferative activity against mouse CT26.WT cells assessed as cell viability at 1.23 uM for 48 hrs by MTT assay; type: functional; settings: read-out: Activity
[16] = molecular target: Nuclear factor NF-kappa-B complex (Homo sapiens) (UniProt Q00653+P19838+Q04206); experiment: Inhibition of NF-kappaB activation in human HGC-27 cells assessed as downregulation of NF-kappaB phosphorylation at 10 uM for 48 hrs by DAPI staining based immunofluorescence assay; type: cell-based
Sequence of Nuclear factor NF-kappa-B complex (Homo sapiens) (P19838 whole entry, looked up): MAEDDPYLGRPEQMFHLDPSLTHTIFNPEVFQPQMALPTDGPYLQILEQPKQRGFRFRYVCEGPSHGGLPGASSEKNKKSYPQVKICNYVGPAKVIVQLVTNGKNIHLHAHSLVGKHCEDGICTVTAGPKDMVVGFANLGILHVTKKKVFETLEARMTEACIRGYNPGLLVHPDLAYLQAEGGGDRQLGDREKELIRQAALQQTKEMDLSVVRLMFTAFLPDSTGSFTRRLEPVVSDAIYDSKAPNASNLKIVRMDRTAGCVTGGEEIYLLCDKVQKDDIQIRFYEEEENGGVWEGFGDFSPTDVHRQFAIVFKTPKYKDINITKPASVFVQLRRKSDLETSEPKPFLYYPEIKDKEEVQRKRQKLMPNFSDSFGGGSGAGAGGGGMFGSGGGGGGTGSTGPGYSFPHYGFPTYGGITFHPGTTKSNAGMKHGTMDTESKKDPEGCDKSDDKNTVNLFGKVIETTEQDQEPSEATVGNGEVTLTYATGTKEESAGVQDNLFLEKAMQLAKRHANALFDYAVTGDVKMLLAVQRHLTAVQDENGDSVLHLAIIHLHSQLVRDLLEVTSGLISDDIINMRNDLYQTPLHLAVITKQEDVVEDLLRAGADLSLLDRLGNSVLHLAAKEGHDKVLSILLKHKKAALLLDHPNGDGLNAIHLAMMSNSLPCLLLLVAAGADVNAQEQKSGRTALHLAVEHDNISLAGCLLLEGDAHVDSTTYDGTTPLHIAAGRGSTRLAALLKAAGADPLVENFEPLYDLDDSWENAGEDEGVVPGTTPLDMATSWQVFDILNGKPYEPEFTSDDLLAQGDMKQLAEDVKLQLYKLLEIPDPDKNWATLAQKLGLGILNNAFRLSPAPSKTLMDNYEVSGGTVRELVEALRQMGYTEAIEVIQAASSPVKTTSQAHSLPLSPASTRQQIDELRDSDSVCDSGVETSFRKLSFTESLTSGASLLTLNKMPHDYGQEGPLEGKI
Sequence of Nuclear factor NF-kappa-B complex (Homo sapiens) (Q00653 whole entry, looked up): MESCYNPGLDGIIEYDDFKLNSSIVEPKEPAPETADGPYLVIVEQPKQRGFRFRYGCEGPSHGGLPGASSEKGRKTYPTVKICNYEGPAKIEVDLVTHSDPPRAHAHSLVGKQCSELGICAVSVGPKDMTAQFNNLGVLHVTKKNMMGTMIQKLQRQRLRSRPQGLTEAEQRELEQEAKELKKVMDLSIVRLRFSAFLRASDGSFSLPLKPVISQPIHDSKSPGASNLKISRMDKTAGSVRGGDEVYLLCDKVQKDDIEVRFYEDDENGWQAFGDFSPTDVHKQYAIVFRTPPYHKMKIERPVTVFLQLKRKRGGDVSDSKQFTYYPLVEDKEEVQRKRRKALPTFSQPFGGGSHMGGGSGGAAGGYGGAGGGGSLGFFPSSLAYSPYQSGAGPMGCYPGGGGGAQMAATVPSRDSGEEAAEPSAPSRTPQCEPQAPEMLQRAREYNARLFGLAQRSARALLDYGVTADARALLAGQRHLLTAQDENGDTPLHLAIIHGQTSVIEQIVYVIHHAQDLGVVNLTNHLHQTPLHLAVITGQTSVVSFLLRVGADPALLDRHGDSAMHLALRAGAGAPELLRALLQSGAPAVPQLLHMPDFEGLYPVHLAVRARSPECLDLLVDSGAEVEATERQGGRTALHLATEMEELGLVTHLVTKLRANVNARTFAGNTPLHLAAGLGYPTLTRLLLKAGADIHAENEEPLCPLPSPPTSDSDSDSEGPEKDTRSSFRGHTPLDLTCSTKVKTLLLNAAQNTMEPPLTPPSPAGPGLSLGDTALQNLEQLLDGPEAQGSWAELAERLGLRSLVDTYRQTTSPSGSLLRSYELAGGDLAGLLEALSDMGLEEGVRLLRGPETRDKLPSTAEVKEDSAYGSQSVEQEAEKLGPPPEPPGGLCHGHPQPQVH
Sequence of Nuclear factor NF-kappa-B complex (Homo sapiens) (Q04206 whole entry, looked up): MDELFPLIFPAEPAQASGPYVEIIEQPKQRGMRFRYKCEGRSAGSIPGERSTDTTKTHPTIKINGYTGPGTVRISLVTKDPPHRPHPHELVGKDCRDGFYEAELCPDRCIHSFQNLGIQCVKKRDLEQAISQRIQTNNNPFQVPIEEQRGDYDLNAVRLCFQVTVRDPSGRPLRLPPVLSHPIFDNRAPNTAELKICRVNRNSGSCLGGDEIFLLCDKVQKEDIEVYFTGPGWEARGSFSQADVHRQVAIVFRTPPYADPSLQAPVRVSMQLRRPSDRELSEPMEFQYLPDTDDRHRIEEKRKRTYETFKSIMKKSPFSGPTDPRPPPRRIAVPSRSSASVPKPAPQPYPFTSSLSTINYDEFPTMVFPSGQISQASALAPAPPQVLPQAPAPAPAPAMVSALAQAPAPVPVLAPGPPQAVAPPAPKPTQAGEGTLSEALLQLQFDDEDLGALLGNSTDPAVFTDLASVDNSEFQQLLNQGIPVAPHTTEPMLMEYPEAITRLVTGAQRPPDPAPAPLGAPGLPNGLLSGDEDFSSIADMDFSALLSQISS

RAW264.7 = experiment: Antiinflammatory activity in mouse RAW264.7 cells assessed as reduction in LPS-induced NF-kappaB nuclear translocation at 6.6 uM incubated for 1 hrs followed by LPS stimulation for 1 hrs by DAPI staining based immunofluorescence assay; type: functional, cell-based; settings: time 2.0 hrs
[17] = Cmax in Sprague-Dawley rat at 100 mg/kg, ip and measured upto 8 hrs by LC-MS/MS analysis; type: ADME, organism-based; parameters: time < 8 hrs, dose 100 mg/kg, route ip; settings: in vivo
[18] = Metabolic stability in rat whole blood assessed as parent compound remaining at 23.76 to 536 ug/mL and measured upto 4 hrs by HPLC analysis; type: ADME, tissue-based; settings: at 23.76 to 536 µg/mL, dose 23.76-536 µg/ml, read-out: Stability
[19] = Toxicity in BALB/c mouse xenografted with mouse CT26.WT assessed as change in body weight at 100 mg/kg, ip twice daily and measured upto 14 days relative to control; type: organism-based; settings: in vivo, 336 h, time < 14 day
[20] = Toxicity in BALB/c mouse xenografted with mouse CT26.WT assessed as pathological changes in liver at 100 mg/kg, ip twice daily and measured after 14 days by hematoxylin and eosin staining based microscopic analysis; type: organism-based; settings: in vivo, 336 h, time 14 day
[21] = Toxicity in BALB/c mouse xenografted with mouse CT26.WT assessed as pathological changes in kidney at 100 mg/kg, ip twice daily and measured after 14 days by hematoxylin and eosin staining based microscopic analysis; type: organism-based; settings: in vivo, 336 h, time 14 day
CT26.WT [22] = experiment: Anti-tumor activity against mouse CT26.WT xenografted in BALB/c mouse assessed as increase in apoptosis at 100 mg/kg, ip twice daily and measured after 14 days by TUNEL staining based assay; type: functional, organism-based; settings: time 14.0 day
CT26.WT [23] = experiment: Anti-tumor activity against mouse CT26.WT xenografted in BALB/c mouse assessed as decrease in MMP-9 expression level in tumor tissue at 100 mg/kg, ip twice daily and measured after 14 days by immunohistochemical analysis; type: functional, organism-based; settings: time 14.0 day
HGC-27 [24] = experiment: Induction of apoptosis in human HGC-27 cells assessed as increase in caspase-3 activity at 3.3 uM incubated for 36 hrs by flow cytometry (Rvb= 9.39%); type: functional

Cc1c(Cl)cccc1Nc1ccc(F)cc1C(=O)NCc1ccc(O)c(O)c1
IC50 (CT26.WT [1]): 3.04 µM | IC50 (RKO [2]): 3.12 µM | IC50 (HGC-27 [3]): 4.71 µM | inhibition [4]: 45.4% | Activity (HGC-27 [5]): Active | IC50 (DNA topoisomerase 1): 4.42 µM | Activity (HGC-27 [6]): Active | Activity (RKO [7]): Active | Activity (HGC-27 [8]): Active | Activity (HGC-27 [9]): Active | Activity (RKO [10]): Active | Activity (RKO [11]): Active | Activity (HGC-27 [12]): 69.46% | Activity (RKO [13]): Active | Activity (RKO [14]): Active | viability at 1.23 µM (CT26.WT [15]): > 80% | inhibition [16]: Active | Activity (RAW264.7): Active | Cmax [17]: 20200 ng/mL | remaining at 4 h [18]: > 90% | Activity [19]: Non-Toxic | Activity [20]: Non-Toxic | Activity [21]: Non-Toxic | Activity (CT26.WT [22]): Active | Activity (CT26.WT [23]): Active | Activity (HGC-27 [24]): 68.8%
